We go through four compounds from patent publication US5053392A, “Novel arginine, glycine, aspartic acid derivatives as platelet-aggregation inhibitors” (Rhone-Poulenc Rorer Pharmaceuticals Inc., priority 1989, dated 1991).

Assay [1] concerns thrombin-stimulated platelets. Kind of assay: Inhibition of radiolabeled (125I) fibrinogen binding assay. Conditions: for Inhibition of 125I-Fibrinogen Binding to Platelet, inhibition at 50 μg/ml: at 50 μg/ml (footnote *); for IC50: thrombin-stimulated platelets, read-out: Inhibition of 125I-Fibrinogen Binding to Platelet IC50. Here is the method: I. Inhibition of Radiolabeled (125I) Fibrinogen Binding Assay, which is essentially based on the method described in Proc Natl. Acad. Sci. U.S.A. Vol. 83, pp. 5708-5712, August 1986, and is as follows.
Platelets are washed free of plasma constitutes by the albumin density-gradient technique. In each experimental mixture platelets in modified Tyrode's buffer are stimulated with human α-thrombin at 22°-25° C. for 10 minutes (3.125×10" platelets per liter and thrombin at […]). Hirudin is then added at a 25-fold excess for 5 minutes before addition of the radiolabeled ligand and any competing ligand. After these additions, the final platelet count in the mixture is […], bound and free ligand are separated by centrifuging 50 μl of the mixture through 300 μl of 20% sucrose at 12,000×g for 4 minutes. The platelet pellet is then separated from the rest of the mixture to determine platelet-bound radioactivity. Nonspecific binding is measured in mixtures containing an excess of unlabeled ligand. When binding curves are analyzed by Scatchard analysis, nonspecific binding is derived as a fitted parameter from the binding isotherm by means of a computerized program. To determine the concentration of each inhibitory compound necessary to inhibit 50% of fibrinogen binding to thrombin-stimulated platelets (IC50), each compound is tested at 0.176 μgmol/liter (60 μg/ml). The IC50 is derived by plotting residual fibrinogen binding against the logarithm of the sample compound's concentration.

The next assay relates to Human Platelets. Briefly: Inhibition of fibrinogen-mediated platelet aggregation. Conditions: for IC50: thrombin-activated human platelets, rate of aggregation. Format: cell-based. Here is the method:
II. Inhibition of Fibrinogen - Mediated Platelet Aggregation, which is essentially based on the method described in Blood, Vol. 66, No. 4, October 1985, pp. 846-952, and is as follows.
Human Platelets were isolated from freshly drawn whole blood and were suspended in 0.14 mol/L NaCl, 2.7 mmol/L […], 12 mmol/L NaHCO3, 0.42 mmol/L Na2 HPO4, 0.55 mmol/L glucose, and 5 mmol/L Hepes, pH 7.35 at 2×10^8 platelets/ml. The suspension was incubated at 37° C. An aliquot of 0.4 ml of platelet suspension was activated by human thrombin at a final concentration of 2 μg/ml of thrombin for one minute. After one minute the reaction was stopped by a thrombin inhibitor. Serial dilution of the compound being tested was then added to the activated platelet, the reaction was allowed to proceed for one minute, followed by the addition of human fibrinogen at a final concentration of […] of fibrinogen. Platelet aggregation was then recorded by an aggregometer. Rate of aggregation was used to calculate IC50.

Non-standard residues stand in square brackets, D forms with d. Residues, ends and D or L forms follow the SMILES beside them. ξ: configuration not given here. Aze = O=C(O)[C@@H]1CCN1; ξPip = O=C(O)C1CCCCN1; Ava = NCCCCC(=O)O

`CC(C)[C@H](NC(=O)[C@H](CC(=O)O)NC(=O)[C@@H]1CCCN1C(=O)[C@@H](N)CCCNC(=N)N)C(=O)O` [L-arginyl-L-prolyl-L-aspartyl-L-valine, L-Arginyl-L-prolyl-L-aspartyl-L-valine] (H-RPDV-OH): the “Inhibition of 125I-Fibrinogen Binding to Platelet, inhibition at 50 μg/ml” value in assay [1] is recorded as “* (Inhibited less than 50% at 50 μg/ml)”. In the assay with Human Platelets, the “Inhibition of Fibrinogen Mediated Platelet Aggregation % inhibition at 100 μM” value was 25% and the IC50 was greater than 100 µM.

`CC(C)[C@H](NC(=O)[C@H](CC(=O)O)NC(=O)[C@@H]1CCN1C(=O)CCCCN)C(=O)O` [N-(5-aminopentanoyl)-azetidin-(2S)-carboxyl-Asp-Val] (H-[Ava][Aze]DV-OH): the IC50 in assay [1] is greater than 200 µM. In addition, in the assay with Human Platelets, the “Inhibition of Fibrinogen Mediated Platelet Aggregation % inhibition at 100 μM” value was 74% and 59 µM corresponded to half-maximal inhibition (IC50).

For `CC(C)[C@H](NC(=O)[C@H](CC(=O)O)NC(=O)[C@@H]1CCN1C(=O)[C@@H](N)CCCNC(=N)N)C(=O)O` [N-(L-arqinyl)-azetidine-(2S)-carboxyl-Asp-Val] (H-R[Aze]DV-OH), the IC50 in assay [1] was found to be 13 µM. In the assay with Human Platelets, the “Inhibition of Fibrinogen Mediated Platelet Aggregation % inhibition at 100 μM” value is 91% and the IC50 was 13 µM.

For the compound `CC(C)[C@H](NC(=O)[C@H](CC(=O)O)NC(=O)C1CCCCN1C(=O)[C@@H](N)CCCNC(=N)N)C(=O)O` (stereo partly drawn) [N-[1-(L-arginyl)piperidin-2-yl-carbonyl]-L-aspartyl-L-valine] (H-R[ξPip]DV-OH), the “Inhibition of 125I-Fibrinogen Binding to Platelet, inhibition at 50 μg/ml” value in assay [1] was “* (Inhibited less than 50% at 50 μg/ml)”. In addition, in the assay with Human Platelets, the “Inhibition of Fibrinogen Mediated Platelet Aggregation % inhibition at 100 μM” value was determined as 73% and the IC50 was 28.6 µM.

The IC50 is the concentration at which inhibition is half-maximal.
